Results as given in ChEMBL document CHEMBL4393697, “Lipophilic efficient phenylthiazoles with potent undecaprenyl pyrophosphatase inhibitory activity” (Eur J Med Chem, 2019).
Converted amounts (≈) assume the structure as drawn.

Assays:
Staphylococcus aureus [1] = experiment: Antibacterial activity against methicillin resistant Staphylococcus aureus USA400 assessed as reduction in bacterial cell growth incubated for 18 to 20 hrs by broth microdilution method; assay type: functional
[2] = Solubility of compound in PBS after 2 hrs by turbidity based absorbance analysis; assay type: physicochemical
Enterococcus faecium [3] = experiment: Antibacterial activity against vancomycin resistant Enterococcus faecium ATCC 700221 assessed as reduction in bacterial cell growth incubated for 18 to 20 hrs by broth microdilution method; assay type: functional
Listeria monocytogenes [4] = experiment: Bactericidal activity against Listeria monocytogenes ATCC 19111 assessed as reduction in bacterial cell growth incubated for 18 to 20 hrs followed by re-plating on tryptic soy agar plates at 37 degC for 18 hrs by broth microdilution assay; assay type: functional
Enterococcus faecalis = experiment: Bactericidal activity against vancomycin resistant Enterococcus faecalis ATCC 51299 assessed as reduction in bacterial cell growth incubated for 18 to 20 hrs followed by re-plating on tryptic soy agar plates at 37 degC for 18 hrs by broth microdilution assay; assay type: functional
Staphylococcus aureus [5] = experiment: Antibacterial activity against vancomycin resistant Staphylococcus aureus VRS12 assessed as reduction in bacterial cell growth incubated for 18 to 20 hrs by broth microdilution method; assay type: functional
Staphylococcus aureus [6] = experiment: Antibacterial activity against vancomycin resistant Staphylococcus aureus VRS10 assessed as reduction in bacterial cell growth incubated for 18 to 20 hrs by broth microdilution method; assay type: functional
Staphylococcus aureus [7] = experiment: Bactericidal activity against vancomycin resistant Staphylococcus aureus VRS10 assessed as reduction in bacterial cell growth incubated for 18 to 20 hrs followed by re-plating on tryptic soy agar plates at 37 degC for 18 hrs by broth microdilution assay; assay type: functional
Listeria monocytogenes [8] = experiment: Antibacterial activity against Listeria monocytogenes ATCC 19111 assessed as reduction in bacterial cell growth incubated for 18 to 20 hrs by broth microdilution method; assay type: functional
Staphylococcus aureus [9] = experiment: Antibacterial activity against Staphylococcus aureus NRS107 assessed as reduction in bacterial cell growth incubated for 18 to 20 hrs by broth microdilution method; assay type: functional
Staphylococcus aureus [10] = experiment: Bactericidal activity against Staphylococcus aureus ATCC 6538 assessed as reduction in bacterial cell growth incubated for 18 to 20 hrs followed by re-plating on tryptic soy agar plates at 37 degC for 18 hrs by broth microdilution assay; assay type: functional
Staphylococcus aureus [11] = experiment: Antibacterial activity against Staphylococcus aureus ATCC 6538 assessed as reduction in bacterial cell growth incubated for 18 to 20 hrs by broth microdilution method; assay type: functional
Streptococcus pneumoniae [12] = experiment: Bactericidal activity against Methicillin resistant Streptococcus pneumoniae ATCC 700677 assessed as reduction in bacterial cell growth incubated for 18 to 20 hrs followed by re-plating on tryptic soy agar plates at 37 degC for 18 hrs by broth microdilution assay; assay type: functional
Staphylococcus aureus [13] = experiment: Bactericidal activity against methicillin resistant Staphylococcus aureus NRS119 assessed as reduction in bacterial cell growth incubated for 18 to 20 hrs followed by re-plating on tryptic soy agar plates at 37 degC for 18 hrs by broth microdilution assay; assay type: functional
Staphylococcus aureus [14] = experiment: Bactericidal activity against methicillin-resistant Staphylococcus aureus USA300 assessed as reduction in bacterial cell growth incubated for 18 to 20 hrs followed by re-plating on tryptic soy agar plates at 37 degC for 18 hrs by broth microdilution assay; assay type: functional
Staphylococcus aureus [15] = experiment: Bactericidal activity against vancomycin resistant Staphylococcus aureus VRS12 assessed as reduction in bacterial cell growth incubated for 18 to 20 hrs followed by re-plating on tryptic soy agar plates at 37 degC for 18 hrs by broth microdilution assay; assay type: functional
Staphylococcus aureus [16] = experiment: Antibacterial activity against vancomycin resistant Staphylococcus aureus VRS11a assessed as reduction in bacterial cell growth incubated for 18 to 20 hrs by broth microdilution method; assay type: functional
Staphylococcus aureus [17] = experiment: Bactericidal activity against vancomycin resistant Staphylococcus aureus VRS11a assessed as reduction in bacterial cell growth incubated for 18 to 20 hrs followed by re-plating on tryptic soy agar plates at 37 degC for 18 hrs by broth microdilution assay; assay type: functional
[18] = tested on: Staphylococcus epidermidis; experiment: Antibacterial activity against methicillin resistant Staphylococcus epidermidis NRS101 assessed as reduction in bacterial cell growth incubated for 18 to 20 hrs by broth microdilution method; assay type: functional
[19] = tested on: Staphylococcus epidermidis; experiment: Bactericidal activity against methicillin resistant Staphylococcus epidermidis NRS101 assessed as reduction in bacterial cell growth incubated for 18 to 20 hrs followed by re-plating on tryptic soy agar plates at 37 degC for 18 hrs by broth microdilution assay; assay type: functional
Streptococcus pneumoniae [20] = experiment: Bactericidal activity against Cephalosporin resistant Streptococcus pneumoniae ATCC 51916 assessed as reduction in bacterial cell growth incubated for 18 to 20 hrs followed by re-plating on tryptic soy agar plates at 37 degC for 18 hrs by broth microdilution assay; assay type: functional
Staphylococcus aureus [21] = experiment: Bactericidal activity against Staphylococcus aureus NRS107 assessed as reduction in bacterial cell growth incubated for 18 to 20 hrs followed by re-plating on tryptic soy agar plates at 37 degC for 18 hrs by broth microdilution assay; assay type: functional
Enterococcus faecium [22] = experiment: Bactericidal activity against vancomycin resistant Enterococcus faecium ATCC 700221 assessed as reduction in bacterial cell growth incubated for 18 to 20 hrs followed by re-plating on tryptic soy agar plates at 37 degC for 18 hrs by broth microdilution assay; assay type: functional
Staphylococcus aureus [23] = experiment: Antibacterial activity against methicillin resistant Staphylococcus aureus NRS119 assessed as reduction in bacterial cell growth incubated for 18 to 20 hrs by broth microdilution method; assay type: functional
Acinetobacter baumannii [24] = experiment: Bactericidal activity against Acinetobacter baumannii ATCC 19606 assessed as reduction in bacterial cell growth incubated for 18 to 20 hrs followed by re-plating on tryptic soy agar plates at 37 degC for 18 hrs by broth microdilution assay; assay type: functional
Escherichia coli [25] = experiment: Antibacterial activity against Escherichia coli BW25113 assessed as reduction in bacterial cell growth incubated for 18 to 20 hrs by broth microdilution method; assay type: functional
Klebsiella pneumoniae [26] = experiment: Bactericidal activity against Klebsiella pneumoniae BAA-1706 assessed as reduction in bacterial cell growth incubated for 18 to 20 hrs followed by re-plating on tryptic soy agar plates at 37 degC for 18 hrs by broth microdilution assay; assay type: functional
Pseudomonas aeruginosa [27] = experiment: Bactericidal activity against Pseudomonas aeruginosa ATCC 15442 assessed as reduction in bacterial cell growth incubated for 18 to 20 hrs followed by re-plating on tryptic soy agar plates at 37 degC for 18 hrs by broth microdilution assay; assay type: functional
Escherichia coli [28] = experiment: Antibacterial activity against Escherichia coli JW55031 harboring deltatolC mutant assessed as reduction in bacterial cell growth incubated for 18 to 20 hrs by broth microdilution method; assay type: functional
Escherichia coli [29] = experiment: Bactericidal activity against Escherichia coli JW55031 harboring deltatolC mutant assessed as reduction in bacterial cell growth incubated for 18 to 20 hrs followed by re-plating on tryptic soy agar plates at 37 degC for 18 hrs by broth microdilution assay; assay type: functional
Acinetobacter baumannii [30] = experiment: Antibacterial activity against Acinetobacter baumannii ATCC 19606 assessed as reduction in bacterial cell growth incubated for 18 to 20 hrs by broth microdilution method; assay type: functional
Klebsiella pneumoniae [31] = experiment: Antibacterial activity against Klebsiella pneumoniae BAA-1706 assessed as reduction in bacterial cell growth incubated for 18 to 20 hrs by broth microdilution method; assay type: functional
Escherichia coli [32] = experiment: BActericidal activity against Escherichia coli BW25113 assessed as reduction in bacterial cell growth incubated for 18 to 20 hrs followed by re-plating on tryptic soy agar plates at 37 degC for 18 hrs by broth microdilution assay; assay type: functional
Pseudomonas aeruginosa [33] = experiment: Antibacterial activity against Pseudomonas aeruginosa ATCC 15442 assessed as reduction in bacterial cell growth incubated for 18 to 20 hrs by broth microdilution method; assay type: functional
J774 = experiment: Cytotoxicity against mouse J774 assessed as reduction in cell viability at 16 ug/ml incubated for 24 hrs by MTS assay; assay type: cell-based; details: j774, 24 h

Compound: C/C(=N\NC(=N)N)c1sc(-c2ccc(C#Cc3cccc([N+](=O)[O-])c3)cc2)nc1C
- MIC (Staphylococcus aureus [1]): 64 mg/L (≈ 153 µM)

Compound: C/C(=N\NC(=N)N)c1sc(-c2ccc(C#Cc3ccoc3)cc2)nc1C
- MIC (Staphylococcus aureus [1]): 4 mg/L (≈ 11 µM)

Compound: CCOC(=O)C#Cc1ccc(-c2nc(C)c(/C(C)=N/NC(=N)N)s2)cc1
- MIC (Staphylococcus aureus [1]): > 64 mg/L

Compound: CCCCc1ccc(-c2nc(C)c(/C(C)=N/NC(=N)N)s2)cc1
- solubility kinetic at 2 h [2]: 65 µM (≈ 21.4 µg/mL)

Compound: CC(=O)NC[C@H]1CN(c2ccc(N3CCOCC3)c(F)c2)C(=O)O1 [LINEZOLID]
- MIC (Enterococcus faecium [3]): ≤ 0.5 mg/L
- MBC (Listeria monocytogenes [4]): 32 mg/L (≈ 94.9 µM)
- MBC (Enterococcus faecalis): 32 mg/L (≈ 94.9 µM)
- MIC (Staphylococcus aureus [5]): 1 mg/L (≈ 2.96 µM)
- MIC (Staphylococcus aureus [6]): 1 mg/L (≈ 2.96 µM)
- MBC (Staphylococcus aureus [7]): 16 mg/L (≈ 47.4 µM)
- MIC (Listeria monocytogenes [8]): ≤ 0.5 mg/L
- MIC (Staphylococcus aureus [9]): 1 mg/L (≈ 2.96 µM)
- MBC (Staphylococcus aureus [10]): 16 mg/L (≈ 47.4 µM)
- MIC (Staphylococcus aureus [11]): 1 mg/L (≈ 2.96 µM)
- MBC (Streptococcus pneumoniae [12]): 32 mg/L (≈ 94.9 µM)
- MBC (Staphylococcus aureus [13]): > 64 mg/L
- MBC (Staphylococcus aureus [14]): 32 mg/L (≈ 94.9 µM)
- MBC (Staphylococcus aureus [15]): 16 mg/L (≈ 47.4 µM)
- MIC (Staphylococcus aureus [16]): 1 mg/L (≈ 2.96 µM)
- MBC (Staphylococcus aureus [17]): 16 mg/L (≈ 47.4 µM)
- MIC [18]: ≤ 0.5 mg/L
- MBC [19]: 16 mg/L (≈ 47.4 µM)
- MBC (Streptococcus pneumoniae [20]): 16 mg/L (≈ 47.4 µM)
- MBC (Staphylococcus aureus [21]): 16 mg/L (≈ 47.4 µM)
- MIC (Staphylococcus aureus [1]): 1 mg/L (≈ 2.96 µM)
- MBC (Enterococcus faecium [22]): 8 mg/L (≈ 23.7 µM)
- MIC (Staphylococcus aureus [23]): 32 mg/L (≈ 94.9 µM)

Compound: COC(=O)c1ccc(C#Cc2ccc(-c3nc(C)c(/C(C)=N/NC(=N)N)s3)cc2)c(C)c1
- MIC (Staphylococcus aureus [1]): > 64 mg/L

Compound: C/C(=N\NC(=N)N)c1sc(-c2ccc(C#CC3CCCCC3)cc2)nc1C
- solubility kinetic at 2 h [2]: 2.7 µM (≈ 1.02 µg/mL)

Compound: C/C(=N\NC(=N)N)c1sc(-c2ccc(C#Cc3ccc(C(=O)O)c(C)c3)cc2)nc1C
- MIC (Staphylococcus aureus [1]): > 64 mg/L

Compound: C/C(=N\NC(=N)N)c1sc(-c2ccc(C#Cc3ccccc3O)cc2)nc1C
- MIC (Staphylococcus aureus [1]): > 64 mg/L

Compound: COLISTIN
- MBC (Acinetobacter baumannii [24]): < 0.5 mg/L
- MIC (Escherichia coli [25]): < 0.5 mg/L
- MBC (Klebsiella pneumoniae [26]): < 0.5 mg/L
- MBC (Pseudomonas aeruginosa [27]): 1 mg/L
- MIC (Escherichia coli [28]): < 0.5 mg/L
- MBC (Escherichia coli [29]): < 0.5 mg/L
- MIC (Acinetobacter baumannii [30]): < 0.5 mg/L
- MIC (Klebsiella pneumoniae [31]): < 0.5 mg/L
- MBC (Escherichia coli [32]): < 0.5 mg/L
- MIC (Pseudomonas aeruginosa [33]): 1 mg/L

Compound: C/C(=N\NC(=N)N)c1sc(-c2ccc(C#Cc3ccccc3N)cc2)nc1C
- MIC (Staphylococcus aureus [1]): > 64 mg/L

Compound: C/C(=N\NC(=N)N)c1sc(-c2ccc(C#Cc3ccccc3)cc2)nc1C
- Activity (J774): Toxic
- solubility kinetic at 2 h [2]: 2.5 µM (≈ 0.934 µg/mL)

Compound: C/C(=N\NC(=N)N)c1sc(-c2ccc(C#Cc3ccncc3)cc2)nc1C
- MIC (Staphylococcus aureus [1]): > 64 mg/L

Compound: C/C(=N\NC(=N)N)c1sc(-c2ccc(C#Cc3ccsc3)cc2)nc1C
- MIC (Staphylococcus aureus [1]): > 64 mg/L

Compound: COc1cccc(C#Cc2ccc(-c3nc(C)c(/C(C)=N/NC(=N)N)s3)cc2)c1
- MIC (Staphylococcus aureus [1]): 4 mg/L (≈ 9.91 µM)
